From ChEMBL document CHEMBL5338801, “Carbohydrate Strengthens the Immunotherapeutic Effect of Small-Molecule PD-L1 Inhibitors” (J Med Chem, 2023)
Calls of active or inactive are those of the source. The rule behind the calls is not given here.

Columns and labels:
[1] = Half life in CD-1 mouse at 10 mg/kg, ig measured upto 24 hrs by UPLC analysis; assay type: ADME, organism-based; conditions: in vivo, po
RKO [2] = experiment: Downregulation of human PD-L1 expressed in RKO cells incubated for 48 hrs; assay type: functional, cell-based
[3] = Tmax in CD-1 mouse at 10 mg/kg, ig measured upto 24 hrs by UPLC analysis; assay type: ADME, organism-based; conditions: in vivo, po
B16-F10 [4] = experiment: Antitumor activity against mouse B16-F10 cells implanted in C57BL/6 mouse assessed as tumor growth inhibition at 25 mg/kg, ip qd for 6 days and measured once a day for 7 days relative to control; assay type: functional; conditions: B16-F10, 168 h, time 7 day, read-out: TGI
[5] = Toxicity in C57BL/6 mouse implanted with mouse B16-F10 cells assessed as weight loss at 5 mg/kg, it qd administered for 6 days measured after 7 days relative to control; assay type: organism-based; conditions: in vivo, other, 168 h, time 7 day
[6] = AUClast in CD-1 mouse at 5 mg/kg, iv measured upto 24 hrs by UPLC analysis; assay type: ADME, organism-based; parameters: dose 5 mg/kg, time < 24 hrs, route iv; conditions: in vivo
CT26 [7] = experiment: Antitumor activity against mouse CT26 cells xenografted Balb/c mouse assessed as granzyme B+ CD8+ T cell count at 25 mg/kg, ip qd administered for 10 days measured every 2 days for 12 days (reference value: 4.31 +/- 2.35%); assay type: functional; conditions: time 12 day
Jurkat = experiment: Cytotoxicity against human Jurkat T cells assessed as cell growth inhibition upto 30 uM incubated for 48 hrs by MTT assay; assay type: toxicity, cell-based
[8] = Toxicity in C57BL/6 mouse implanted with mouse B16-F10 cells assessed as weight loss at 100 mg/kg, po qd administered for 6 days measured after 7 days relative to control; assay type: organism-based; conditions: in vivo, 168 h, time 7 day
CT26 [9] = experiment: Antitumor activity against mouse CT26 cells implanted Balb/c mouse assessed as increase CD4+ cell count at 25 mg/kg, ip qd administered for 10 days measured every 2 days for 12 days (reference value: 13.74 +/- 0.51%); assay type: functional; conditions: time 12 day
[10] = Toxicity in C57BL/6 mouse implanted with mouse B16-F10 cells assessed as weight loss at 25 mg/kg, ip qd administered for 6 days measured after 7 days relative to control; assay type: organism-based; conditions: in vivo, 168 h, time 7 day
RKO [11] = experiment: Cytotoxicity against human RKO cells over expressing human PD-L1 at 50 uM; assay type: toxicity, cell-based
[12] = Observed MRT infinity in CD-1 mouse at 10 mg/kg, ig measured upto 24 hrs by UPLC analysis; assay type: ADME, organism-based; conditions: in vivo, po
[13] = Upregulation of IFN-gamma secretion in human CD4+ve Th cells cocultured with DC cells incubated for 120 hrs by ELISA; assay type: functional
[14] = Observed MRT infinity in CD-1 mouse at 5 mg/kg, iv measured upto 24 hrs by UPLC analysis; assay type: ADME, organism-based; conditions: in vivo
[15] = Volume of distribution at steady state in CD-1 mouse at 5 mg/kg, iv measured upto 24 hrs by UPLC analysis; assay type: ADME, organism-based; conditions: in vivo, read-out: Vdss
[16] = Observed clearance in CD-1 mouse at 5 mg/kg, iv measured upto 24 hrs by UPLC analysis; assay type: ADME, organism-based; conditions: in vivo
CT26 [17] = experiment: Downregulation of STING ER exit protein in Balb/c mouse tumor implanted with mouse CT26 cells by LC/MS analysis; assay type: functional, cell-based
[18] = Cmax in CD-1 mouse at 10 mg/kg, ig measured upto 24 hrs by UPLC analysis; assay type: ADME, organism-based; parameters: dose 10 mg/kg, time < 24 hrs, route ig; conditions: in vivo, po
B16-F10 [19] = experiment: Antitumor activity against mouse B16-F10 cells implanted in C57BL/6 mouse assessed as tumor growth inhibition at 5 mg/kg, it qd for 6 days and measured once a day for 7 days relative to control; assay type: functional; conditions: B16-F10, 168 h, time 7 day, read-out: TGI
[20] = Partition coefficient, logD of compound in 1-octanol and phosphate buffer at pH 7.4 incubated for 1 hr under shaking condition by HPLC analysis; assay type: physicochemical; conditions: 1-octanol/phosphate buffer, pH 7.4
[21] = AUClast in CD-1 mouse at 10 mg/kg, ig measured upto 24 hrs by UPLC analysis; assay type: ADME, organism-based; parameters: dose 10 mg/kg, time < 24 hrs, route ig; conditions: in vivo, po
[22] = target: T1, Programmed cell death protein 1/Programmed cell death 1 ligand 1 (Homo sapiens, UniProt Q9NZQ7); experiment: Inhibition of human PD-1/PD-L1 interaction overexpressed in human HEK293T cells by flow cytometry analysis; assay type: cell-based
CT26 [23] = experiment: Antitumor activity against mouse CT26 cells xenografted Balb/c mouse assessed as increase CD3+ CD8+ T cell count at 25 mg/kg, ip qd administered for 10 days measured every 2 days for 12 days (reference value: 5.77 +/- 0.32%); assay type: functional; conditions: time 12 day
[24] = Toxicity in BALB/c mouse implanted with mouse CT26 cells assessed as weight loss at 25 mg/kg, ip qd administered for 10 days measured every 2 days for 12 days relative to control; assay type: organism-based; conditions: in vivo, 288 h, time 12 day
[25] = target: Programmed cell death 1 ligand 1 (Homo sapiens) (UniProt Q9NZQ7); experiment: Inhibition of human PD-L1 overexpressed in RKO cells assessed as reduction in membrane activity cocultured for 48 hrs by flow cytometry analysis; assay type: cell-based
[26] = Observed AUC infinity in CD-1 mouse at 5 mg/kg, iv measured upto 24 hrs by UPLC analysis; assay type: ADME, organism-based; parameters: dose 5 mg/kg, time < 24 hrs, route iv; conditions: in vivo
B16-F10 [27] = experiment: Antitumor activity against mouse B16-F10 cells implanted in C57BL/6 mouse assessed as tumor growth inhibition at 100 mg/kg, po qd for 6 days and measured once a day for 7 days relative to control; assay type: functional; conditions: B16-F10, 168 h, time 7 day, read-out: TGI
[28] = Half life in CD-1 mouse at 5 mg/kg, iv measured upto 24 hrs by UPLC analysis; assay type: ADME, organism-based; conditions: in vivo
CT26 [29] = experiment: Downregulation of mouse PD-L1 expressed in CT26 cells incubated for 48 hrs; assay type: functional, cell-based
CT26 [30] = experiment: Downregulation of mitogen-activated protein kinase 15 in mouse CT26 cells implanted in Balb/c mouse tumor by LC/MS analysis; assay type: functional, cell-based
CT26 [31] = experiment: Downregulation of BET1 homologue in Balb/c mouse tumor implanted with mouse CT26 cells by LC/MS analysis; assay type: functional, cell-based
CT26 [32] = experiment: Antitumor activity against mouse CT26 cells implanted in Balb/c mouse assessed as tumor growth inhibition at 25 mg/kg, ip qd administered for 10 days measured every 2 days for 12 days relative to control; assay type: functional; conditions: CT26, 288 h, time 12 day, read-out: TGI
[33] = target: T1, Programmed cell death protein 1/Programmed cell death 1 ligand 1; experiment: Inhibition of PD-1/PD-L1 (unknown origin) interaction incubated for 15 mins by HTRF assay; assay type: protein-complex assay
[34] = target: Programmed cell death 1 ligand 1 (Homo sapiens) (UniProt Q9NZQ7); experiment: Induction of human PD-L1 degradation expressed in MC38 cells at 1 to 10 uM cocultured for 72 hrs by Western blotting analysis; assay type: cell-based; conditions: dose 1-10 µM
CT26 [35] = experiment: Downregulation of immediate early response 3-interacting protein 1 in Balb/c mouse tumor implanted with mouse CT26 cells tumor by LC/MS analysis; assay type: functional, cell-based
[36] = target: T1, Programmed cell death protein 1/Programmed cell death 1 ligand 1; experiment: Inhibition of PD-1/His-tagged PD-L1 (unknown origin) protein-protein interaction incubated for 90 mins by AlphaLISA; assay type: protein-complex assay
[37] = Tmax in CD-1 mouse at 5 mg/kg, ip measured upto 24 hrs by UPLC analysis; assay type: ADME, organism-based; conditions: in vivo
[38] = Cmax in CD-1 mouse at 5 mg/kg, ip measured upto 24 hrs by UPLC analysis; assay type: ADME, organism-based; parameters: dose 5 mg/kg, time < 24 hrs, route ip; conditions: in vivo
[39] = AUClast in CD-1 mouse at 5 mg/kg, ip measured upto 24 hrs by UPLC analysis; assay type: ADME, organism-based; parameters: dose 5 mg/kg, time < 24 hrs, route ip; conditions: in vivo
[40] = Half life in CD-1 mouse at 5 mg/kg, ip measured upto 24 hrs by UPLC analysis; assay type: ADME, organism-based; conditions: in vivo
[41] = Tmax in CD-1 mouse at 5 mg/kg, iv measured upto 24 hrs by UPLC analysis; assay type: ADME, organism-based; conditions: in vivo
[42] = Observed MRT infinity in CD-1 mouse at 5 mg/kg, ip measured upto 24 hrs by UPLC analysis; assay type: ADME, organism-based; conditions: in vivo
[43] = Observed AUC infinity in CD-1 mouse at 5 mg/kg, ip measured upto 24 hrs by UPLC analysis; assay type: ADME, organism-based; parameters: dose 5 mg/kg, time < 24 hrs, route ip; conditions: in vivo
[44] = Cmax in CD-1 mouse at 5 mg/kg, iv measured upto 24 hrs by UPLC analysis; assay type: ADME, organism-based; parameters: dose 5 mg/kg, time < 24 hrs, route iv; conditions: in vivo

T1 sequence (Q15116 whole entry): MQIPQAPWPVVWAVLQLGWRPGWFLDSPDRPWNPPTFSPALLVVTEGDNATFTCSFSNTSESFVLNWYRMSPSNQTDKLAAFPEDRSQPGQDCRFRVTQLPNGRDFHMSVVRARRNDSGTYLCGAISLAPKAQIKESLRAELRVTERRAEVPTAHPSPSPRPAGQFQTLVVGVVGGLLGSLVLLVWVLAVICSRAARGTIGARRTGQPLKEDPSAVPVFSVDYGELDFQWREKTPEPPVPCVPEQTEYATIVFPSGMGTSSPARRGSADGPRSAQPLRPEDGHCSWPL
T1 sequence (Q9NZQ7 whole entry): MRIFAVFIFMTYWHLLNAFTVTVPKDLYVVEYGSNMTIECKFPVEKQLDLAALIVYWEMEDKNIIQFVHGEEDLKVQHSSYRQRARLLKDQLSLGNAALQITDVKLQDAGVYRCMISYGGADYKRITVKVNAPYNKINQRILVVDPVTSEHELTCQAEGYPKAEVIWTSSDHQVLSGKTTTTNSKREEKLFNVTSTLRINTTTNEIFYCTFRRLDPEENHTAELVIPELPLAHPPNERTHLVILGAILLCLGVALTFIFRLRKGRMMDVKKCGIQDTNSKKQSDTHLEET
Sequence of Programmed cell death 1 ligand 1 (Homo sapiens) (Q9NZQ7 whole entry): as above

AUC(0-t) at 24 h [6] [ng·h/mL]	MRT inf [14] [h]	logD at 1 h [20]	half-life [28] [h]	SMILES	inhibition in vivo at 25 mg/kg (B16-F10 [4]) [%]	Activity [5]	Activity (CT26 [7]) [%]	Activity (Jurkat)	Activity [8]	Activity (CT26 [9]) [%]	Activity [10]	fold change (FC) [13]	inhibition in vivo at 5 mg/kg (B16-F10 [19]) [%]	IC50 [22] [nM]	Activity (CT26 [23]) [%]	Activity [24]	inhibition in vivo at 100 mg/kg (B16-F10 [27]) [%]	inhibition in vivo at 25 mg/kg (CT26 [32]) [%]	other results
2160	3.58	2.09	6.36	COc1nc(OCc2cccc(-c3ccccc3)c2C)ccc1CNCCO[C@@H]1O[C@H](CO)[C@@H](O)[C@H](O)[C@H]1NC(C)=O	41.1	Non-Toxic	5.06	Non-Toxic	Non-Toxic	20.53	Non-Toxic	2.57	41.1	49.4	11.47	Non-Toxic	41.1	77.3	half-life [1]: 7.02 h; Activity (RKO [2]): Active; Tmax [3]: 0.5 h; Activity (RKO [11]): Non-Toxic; MRT inf [12]: 10.2 h; Vd [15]: 6.88 L/kg; clearance [16]: 38.6 mL/min/kg; Activity (CT26 [17]): Active; Cmax [18]: 31.7 ng/mL; AUC(0-t) at 24 h [21]: 337 ng·h/mL; inhibition [25]: Active; AUC(0-inf) ([26]; CD-1, mouse): 2230 ng·h/mL; Activity (CT26 [29]): Active; Activity (CT26 [30]): Active; Activity (CT26 [31]): Active; IC50 [33]: 29.2 nM; Activity [34]: Active; Activity (CT26 [35]): Active
				Cc1c(COc2cc(OCc3cncc(C#N)c3)c(CN(CCCN(C)C)CCS(=O)(=O)O)cc2Cl)cccc1-c1ccc2c(c1)OCCO2															IC50 [36]: 23.5 nM
1090	1.5	1.78	3.78	COc1cc(OCc2cccc(-c3ccccc3)c2C)cc(OC)c1CNCCO[C@H]1O[C@H](CO)[C@@H](O)[C@H](O)[C@@H]1O	41.1	Non-Toxic	7.19	Non-Toxic	Non-Toxic	18.4	Non-Toxic	6.72	41.1	60.8	8.67	Non-Toxic	41.1	67.2	Tmax [37]: 0.58 h; Cmax [38]: 1630 ng/mL; AUC(0-t) at 24 h [39]: 2920 ng·h/mL; half-life [40]: 5.83 h; Tmax [41]: 0.58 h; AUC ([26]; mouse, 24 h): 1110 ng·h/mL; MRT inf [42]: 1.9 h; AUC(0-inf) [43]: 2990 ng·h/mL; Cmax [44]: 928 ng/mL
